Patent US7371773B2, “Breast cancer resistance protein (BCRP) inhibitor” (Kabushiki Kaisha Yakult Honsha, priority 2003, dated 2008)
Values after ≈ are worked out from the molar mass of the structure shown. Structures can show the parent of a compound that is named as a salt.

Experiments:
[1] = tested on: MES-SA/Dx5 cell line; assay: Effect on multidrug resistance of MES-SA/Dx5 cell line; assay type: cell-based; conditions: Homo sapiens; paclitaxel resistance, MES-SA/Dx5 (P-glycoprotein overexpression), 48 hours; read-out: Resistance overcoming effect EC50
Protocol: Human uterine cancer MES-SA cell line or MES-SA/Dx5 cell line which had acquired multidrug resistance through overexpression of P-glycoprotein [Cancer Res. 45, 4091-4096 (1985)] was suspended in 10% FBS/DMEM, and the resultant suspension was inoculated into a 96-well microplate, followed by culturing at 5% CO2 and 37° C. overnight (3×10^3 cells/50 μL/well). Thereafter, a solution of a diphenylacrylonitrile derivative and paclitaxel in 10% FBS/DMEM (25 μL) was added to each of the wells, followed by culturing at 5% CO2 and 37° C. for 48 hours. After completion of culturing, the number of viable cells was counted by use of TetraColor ONE according to the attached instruction manual.

[2] = tested on: A549/SN-38-4 cell line; assay: Overcoming anticancer drug resistance of A549/SN-38-4 cell line; assay type: cell-based, human; conditions: for EC50: Homo sapiens, A549, SN-38 resistance, concentration for 50% reduction of relative resistance value, 48 hours, read-out: Resistance overcoming effect EC50
Protocol: The effect of a diphenylacrylonitrile derivative on BCRP-mediated anticancer drug resistance was studied by use of the human lung cancer A549/SN-38-4 cell line, which had acquired anticancer drug resistance through BCRP expression. The human lung cancer A549 cell line or the A549/SN-38-4 cell line was suspended in 10% FBS/Ham's F-12, and the resultant suspension was inoculated into a 96-well microplate, followed by culturing at 5% CO2 and 37° C. overnight (2×10^3 cells/50 μL/well). Thereafter, a 10% FBS/Ham's F-12 solution (25 μL) containing a diphenylacrylonitrile derivative and SN-38 or mitoxantrone was added to each of the wells, followed by culturing at 5% CO2 and 37° C. for 48 hours. After completion of culturing, the number of viable cells was counted by use of TetraColor ONE according to the attached instruction manual. […] The greater the relative resistance value, the higher the level of acquired resistance.

[3] = tested on: P388/BCRP cell line; assay: Overcoming anticancer drug resistance in vivo (survival of tumor-implanted mice); parameters: species or system CDF1 mice; conditions: compound 100 mg/kg/day + CPT-11 20 mg/kg/day i.p. once a day, 10 administrations

| EC50 [2] [µg/mL] | Molecule | EC50 [1] [µg/mL] | further results |
| --- | --- | --- | --- |
| 0.023 (≈ 0.0743 µM) | COc1ccc(/C(C#N)=C/c2cc(C)c(O)c(C)c2)cc1OC [Compound 10, (Z)-2-(3,4-dimethoxy-phenyl)-3-(4-hydroxy-3,5-dimethyl-phenyl)-acrylonitrile] | > 1 | – |
| < 0.005 | COc1ccc(/C(C#N)=C/c2cc(F)cc(F)c2)cc1OC [Compound 26, (Z)-3-(3,5-difluoro-phenyl)-2-(3,4-dimethoxy-phenyl)-acrylonitrile] | – | – |
| 0.041 | COC(=O)CCC(=O)Oc1ccc(/C=C(\C#N)c2ccc(OC)c(OC)c2)cc1 [Compound 41, 4-[(Z)-2-cyano-2-(3,4-dimethoxy-phenyl)-vinyl]-phenyl methyl succinate] | – | – |
| 0.11 (≈ 0.375 µM) | COc1ccc(/C(C#N)=C/c2ccc(C=O)cc2)cc1OC [Compound 62, (Z)-2-(3,4-dimethoxy-phenyl)-3-(4-formyl-phenyl)-acrylonitrile] | – | – |
| 0.017 (≈ 0.0498 µM) | COc1ccc(/C(C#N)=C/c2cc(OC)c(O)c(OC)c2)cc1OC [Compound 79, (Z)-2-(3,4-dimethoxy-phenyl)-3-(4-hydroxy-3,5-dimethoxy-phenyl)-acrylonitrile] | – | – |
| 0.048 (≈ 0.147 µM) | COc1ccc(/C(C#N)=C/c2ccc([N+](=O)[O-])c(O)c2)cc1OC [Compound 53, (Z)-2-(3,4-dimethoxy-phenyl)-3-(3-hydroxy-4-nitro-phenyl)-acrylonitrile] | – | – |
| 0.085 (≈ 0.274 µM) | COc1ccc(/C(C#N)=C/c2ccccc2[N+](=O)[O-])cc1OC [Compound 37, (Z)-2-(3,4-dimethoxy-phenyl)-3-(2-nitro-phenyl)-acrylonitrile] | – | – |
| 0.0063 (≈ 0.0222 µM) | COc1ccc(/C(C#N)=C/c2ccc(F)cc2)cc1OC [Compound 18, (Z)-2-(3,4-dimethoxy-phenyl)-3-(4-fluoro-phenyl)-acrylonitrile] | – | – |
| 0.28 (≈ 0.813 µM) | COc1ccc(/C(C#N)=C/c2ccc(Br)cc2)cc1OC [Compound 12, (Z)-3-(4-bromo-phenyl)-2-(3,4-dimethoxy-phenyl)-acrylonitrile] | > 1 | – |
| 0.37 (≈ 1.01 µM) | CCOC(=O)COc1ccc(/C=C(\C#N)c2ccc(OC)c(OC)c2)cc1 [Compound 35, ethyl [4-[(Z)-2-cyano-2-(3,4-dimethoxy-phenyl)-vinyl]-phenoxy]-acetate] | – | – |
| 0.043 (≈ 0.144 µM) | COc1ccc(/C(C#N)=C/c2ccc(O)c(F)c2)cc1OC [Compound 59, (Z)-2-(3,4-dimethoxy-phenyl)-3-(3-fluoro-4-hydroxy-phenyl)-acrylonitrile] | – | – |
| 0.028 (≈ 0.0899 µM) | COc1ccc(/C(C#N)=C/c2cccc(O)c2OC)cc1OC [Compound 9, (Z)-2-(3,4-dimethoxy-phenyl)-3-(3-hydroxy-2-methoxy-phenyl)-acrylonitrile] | > 1 | – |
| 0.079 (≈ 0.282 µM) | COc1ccc(/C(C#N)=C/c2ccc(N)cc2)cc1OC [Compound 34, (Z)-3-(4-amino-phenyl)-2-(3,4-dimethoxy-phenyl)-acrylonitrile] | – | – |
| 0.15 (≈ 0.498 µM) | COc1ccc(/C(C#N)=C/c2c(F)cccc2F)cc1OC [Compound 32, (Z)-3-(2,6-difluoro-phenyl)-2-(3,4-dimethoxy-phenyl)-acrylonitrile] | – | – |
| 0.015 (≈ 0.0501 µM) | COc1ccc(/C(C#N)=C/c2cccc(F)c2O)cc1OC [Compound 55, (Z)-2-(3,4-dimethoxy-phenyl)-3-(3-fluoro-2-hydroxy-phenyl)-acrylonitrile] | – | – |
| 0.019 (≈ 0.0612 µM) | COc1ccc(/C(C#N)=C/c2ccc([N+](=O)[O-])cc2)cc1OC [Compound 19, (Z)-2-(3,4-dimethoxy-phenyl)-3-(4-nitro-phenyl)-acrylonitrile] | – | – |
| 0.15 (≈ 0.423 µM) | CCOc1ccc(/C=C(\C#N)c2ccc(OC)c(OC)c2)cc1[N+](=O)[O-] [Compound 40, (Z)-2-(3,4-dimethoxy-phenyl)-3-(4-ethoxy-3-nitro-phenyl)-acrylonitrile] | – | – |
| 0.023 (≈ 0.0739 µM) | COc1cc(/C(C#N)=C/c2ccc(O)cc2)cc(OC)c1OC [Compound 15, (Z)-3-(4-hydroxy-phenyl)-2-(3,4,5-trimethoxy-phenyl)-acrylonitrile] | > 1 | – |

Second part, the molecule before the results:

| Molecule | EC50 [2] [µg/mL] | EC50 [1] [µg/mL] | further results |
| --- | --- | --- | --- |
| CCCCOc1ccc(/C(C#N)=C/c2ccc(O)cc2)cc1 [Compound 14, (Z)-2-(4-butoxy-phenyl)-3-(4-hydroxy-phenyl)-acrylonitrile] | 0.047 (≈ 0.16 µM) | > 1 | – |
| COc1ccc(/C(C#N)=C/c2ccc(O)c(O)c2)cc1OC [Compound 8, (Z)-3-(3,4-dihydroxy-phenyl)-2-(3,4-dimethoxy-phenyl)-acrylonitrile] | 0.035 (≈ 0.118 µM) | > 1 | Survival days Mean ± S.D. ([3]; Table 6): 19.2 ± 0.8 days; T/C ([3]; Table 6): 160% |
| CCOc1cc(/C=C(\C#N)c2ccc(OC)c(OC)c2)ccc1O [Compound 11, (Z)-2-(3,4-dimethoxy-phenyl)-3-(3-ethoxy-4-hydroxy-phenyl)-acrylonitrile] | 0.047 (≈ 0.144 µM) | > 1 | Survival days Mean ± S.D. ([3]; Table 6): 19.4 ± 0.5 days; T/C ([3]; Table 6): 162% |
| COc1ccc(/C(C#N)=C/c2ccc(OC(=O)N3CCC(N4CCCCC4)CC3)cc2)cc1OC [Compound 2, 4-[(Z)-2-cyano-2-(3,4-dimethoxy-phenyl)-vinyl]-phenyl [1,4′]bipiperidinyl-1′-carboxylate] | 0.41 (≈ 0.862 µM) | > 1 | – |
| COc1ccc(/C(C#N)=C/c2cccc(N)c2)cc1OC [Compound 68, (Z)-3-(3-amino-phenyl)-2-(3,4-dimethoxy-phenyl)-acrylonitrile hydrochloride] | – | – | Survival days Mean ± S.D. ([3]; Table 7, hydrochloride): 18.8 ± 2.9 days; Resistance overcoming effect EC50 [2]: 0.048 µg/mL |
| COc1ccc(/C(C#N)=C/c2cccc(N)c2)cc1OC [Compound 57, (Z)-3-(3-amino-phenyl)-2-(3,4-dimethoxy-phenyl)-acrylonitrile] | 0.037 (≈ 0.132 µM) | – | Survival days Mean ± S.D. ([3]; Table 7): 18.8 ± 0.8 days; T/C ([3]; Table 7): 145% |
| COc1ccc(/C(C#N)=C/c2cccc(F)c2)cc1OC [Compound 13, (Z)-2-(3,4-dimethoxy-phenyl)-3-(3-fluoro-phenyl)-acrylonitrile] | 0.013 (≈ 0.0459 µM) | > 1 | Survival days Mean ± S.D. ([3]; Table 6): 20.6 ± 0.9 days; T/C ([3]; Table 6): 172% |
| COc1ccc(/C(C#N)=C/c2cccc(O)c2)cc1OC [Compound 5, (Z)-2-(3,4-dimethoxy-phenyl)-3-(3-hydroxy-phenyl)-acrylonitrile] | 0.021 (≈ 0.0747 µM) | > 1 | Survival days Mean ± S.D. ([3]; Table 6): 19.2 ± 1.1 days; T/C ([3]; Table 6): 160% |
| COc1ccc(/C(C#N)=C/c2ccccc2O)cc1OC [Compound 6, (Z)-2-(3,4-dimethoxy-phenyl)-3-(2-hydroxy-phenyl)-acrylonitrile] | 0.098 (≈ 0.348 µM) | > 1 | – |
| COCCOCOc1ccc(/C=C(\C#N)c2ccc(OC)c(OC)c2)cc1 [Compound 4, (Z)-2-(3,4-dimethoxy-phenyl)-3-[4-(2-methoxy-ethoxymethoxy)-phenyl]-acrylonitrile] | 0.079 (≈ 0.214 µM) | > 1 | – |
| COc1ccc(/C(C#N)=C/c2ccc(OC(C)=O)cc2)cc1OC [Compound 3, 4-[(Z)-2-cyano-2-(3,4-dimethoxy-phenyl)-vinyl]-phenyl acetate] | 0.02 | > 1 | Survival days Mean ± S.D. ([3]; Table 6): 19.8 ± 0.8 days; T/C ([3]; Table 6): 165% |
| COc1cc(/C=C(\C#N)c2ccc(OC)c(OC)c2)ccc1O [Compound 7, (Z)-2-(3,4-dimethoxy-phenyl)-3-(4-hydroxy-3-methoxy-phenyl)-acrylonitrile] | 0.025 (≈ 0.0803 µM) | > 1 | Survival days Mean ± S.D. ([3]; Table 6): 20.0 ± 0.7 days; T/C ([3]; Table 6): 167% |
| (Z)-2-(3,4-dimethoxyphenyl)-3-[4-(6-phospho-β-D-glucopyranosyl)-phenyl]-acrylonitrile [Compound 73] | – | – | Resistance overcoming effect EC50 [2]: 1.0 µg/mL |
| (Z)-2-(3,4-dimethoxyphenyl)-3-(4-β-D-glucopyranosyl-phenyl)-acrylonitrile [Compound 44] | – | – | Resistance overcoming effect EC50 [2]: 0.024 µg/mL |
| N#C/C(=C\c1ccc(O)cc1)c1ccc(O)cc1 [Compound 16, (Z)-2,3-bis-(4-hydroxy-phenyl)-acrylonitrile] | 0.098 (≈ 0.413 µM) | > 1 | Survival days Mean ± S.D. ([3]; Table 6): 19.2 ± 0.4 days; T/C ([3]; Table 6): 160% |
| COc1ccc(/C(C#N)=C/c2ccc(O)cc2)cc1OC [Compound 1, (Z)-2-(3,4-dimethoxyphenyl)-3-(4-hydroxyphenyl)acrylonitrile] | 0.051 (≈ 0.181 µM) | > 1 | Survival days Mean ± S.D. ([3]; Table 6): 19.4 ± 1.1 days; T/C ([3]; Table 6): 162% |
